{
  "source": "patent US20080081039A1",
  "about": "“Inorganic Selenium For Treatment Of Cancer” (priority 2004, published 2008)",
  "key": {"PC-3 cells [1]": {"test_system": "PC-3 cells", "details": "5 weeks, vs controls", "protocol": "Animal experimentation involved the use of BALB/c nude mice. On day one of the experiment 6 week old BALB/c nude mice were anaesthetized with an intraperitoneal injection of ketamine 100 mg/kg and xylazine 20 mg/kg. Under magnification 1×10^6 PC-3 cells with viability greater than 95%, were injected into the dorsolateral prostate, essentially as described in Corcoran, N. M., Najdovska, M., and Costello, A. J. (2004), J. Urol., 171:907-910.\nOn day 3 of the experiment all mice were switched to the D19101 minimal selenium diet with an assayed selenium content of 0.07 ppm (Research Diets Inc., New Brunswick, N.J., USA). […] After 5 weeks of supplementation mice were culled and tumor-containing prostate glands were then weighed and measured with a Vernier calliper. The retroperitonium was then explored under magnification cephadally to the level of the renal veins and lymph nodes measuring greater than 0.5 mm identified.\nThe degree of apoptosis in tissue samples was determined using an in situ TUNEL Cell Death Detection Kit (Roche Applied Science) according to the manufacture's instructions. The number of brown staining cells at high power (×400) were counted in 10 randomly chosen fields in areas where necrosis was absent on H&E staining of adjacent sections.\nThe rate of tumor cell proliferation was determined by in vivo BrdU incorporation. Two hours prior to culling, the mice were injected with 50 mg/kg BrdU (Sigma) intraperitoneally. 5 μm sections were cut, fixed in absolute methanol at 4° C. for 10 minutes. Sections were rehydrated in PBS and incubated in 2 N HCl for 1 hour at 37° C. to denature the DNA. The acid was neutralized by immersing the slides in 0.1 M borate buffer (pH 8.5). Following 3×PBS washes the samples were incubated with a monoclonal antibody to bromodeoxyuridine (BrdU) (Roche Applied Science) at a concentration of 5 μg/mL diluted in 0.1% BSA in PBS for 1 hour at room temperature, then overnight at 4° C. Samples were washed 3× times in PBS and incubated for 1 hour with a biotinylated link immunoglobulin mixture (DAKO Corporation). […] 10 fields at high power (×400) were chosen at random and the number of brown staining cells counted."}, "PC-3 cells [2]": {"test_system": "PC-3 cells", "details": "24-72 hours", "protocol": "Analysis of PC-3 growth curves were achieved by allowing 2×10^5 PC-3 cells to attach overnight. […] Supernatants and cells were then harvested, combined and viable cells assessed by Trypan Blue exclusion assay. Experiments were performed in triplicate."}, "PC-3 cells [3]": {"test_system": "PC-3 cells", "protocol": "Cells were allowed to grow until the indicated time points, then harvested, washed in PBS and fixed in ice cold 70% ethanol for 15 minutes. Cells were washed with PBS and resuspended in PBS containing 40 μg/mL of propidum iodide (Sigma) and […] of RNase. DNA histograms were generated for each reading and the proportion of cells present in the G1 and G2/M peaks determined. Results were obtained for three independent experiments."}, "GFP-FKHR fusion protein": {"test_system": "GFP-FKHR fusion protein", "experiment": "GFP-FKHR cellular localization in transfected PC-3 cells", "type": "cell-based, human", "details": "LY294002 50 μM 1 hour; sodium selenate or selenomethionine 0.5 mM 3 hours", "protocol": "The day before transfection, 5×10^5 PC-3 cells were seeded in 24-well dishes and transiently transfected with 0.8 μg of pcDNA3-GFP-FKHRwt construct (kind gift Dr Bill Sellers, Dana-Farber Institute, Boston) using Lipofectamine 2000 (Invitrogen). Cells were permeabilized in 0.2% Triton X-100 and the nuclear contents stained with DAPI. Coverslips were mounted with fluorescent mounting medium (DAKO). The cellular distribution of green fluorescence was determined in dual fluorescent cells using a Leica epifluorescent microscope.\nReintroducing PTEN function in such cells induces translocation of FKHR to the nucleus eventually causing G1 arrest in PTEN-null cells (Nakamura et al 2000, supra)."}, "[4]": {"test_system": "prostate tumor PC-3 cells", "protocol": "1×10^6 prostate tumor PC-3 cells were injected into the prostate of nude mice. […] Paclitaxel at 10 mg/kg was administered intraperitoneally once per week in 10% Cremophor EL/25% ethanol/65% PBS solution to those animals receiving paclitaxel. 10 animals were used per group. After 5 weeks post injection, animals were sacrificed, the prostates removed, the appendages dissected off and the tumors weighed. The retroperitoneum was explored for lymphadenopathy and lymph nodes greater than 0.5 mm diameter excised. The tumors were then step sectioned at 50 micron steps and tumor volumes calculated from the digitized images using the standard volumetric formula […]."}, "Akt": {"test_system": "Akt", "experiment": "Activation of Akt by different selenium compounds in PC-3 cells, immunoblot", "type": "cell-based, human", "details": "serum starved PC-3 cells", "excerpt": "Signal intensities from the developed films were scanned and intensities of active Akt correlated to total Akt levels were plotted."}, "[5]": {"test_system": "human prostate tumor cells", "details": "in comparison to organic selenomethionine, methylselenocysteine or selenized yeast; cited from earlier work"}},
  "note": "Values joined by “and” are separate entries in the source; they are usually repeats but may differ in a detail not shown here. Equal entries are not always repeated. Where two headings read alike, the source gives them in different places.",
  "data": [
    {"smiles": "O=[Se](=O)(O)O", "note": "[sodium selenate]", "values": [
      {"measurement": "number of retroperitoneal lymph nodes", "setting": "PC-3 cells [1]; 5 ppm in drinking water, lymph nodes greater than 0.5 mm", "value": "significantly decreased"},
      {"measurement": "BrdU incorporation in prostate tumors", "setting": "PC-3 cells [1]; 5 ppm in drinking water", "value": "significantly impaired"},
      {"measurement": "apoptosis (Tunel assay) in prostate tumors", "setting": "PC-3 cells [1]; 5 ppm in drinking water", "value": "not significantly different"},
      {"measurement": "tumor volume difference", "setting": "PC-3 cells [1]; 5 ppm in drinking water", "value": "just failed to reach significance"},
      {"measurement": "primary tumor growth assessed by the prostate weight index", "setting": "PC-3 cells [1]; 5 ppm selenium as sodium selenate in drinking water", "value": "significantly inhibit"},
      {"measurement": "PC-3 cell number", "setting": "PC-3 cells [2]; doses of 0.01 to 0.1 mM", "value": "rate of increase in cell number was impeded"},
      {"measurement": "PC-3 cell number", "setting": "PC-3 cells [2]; doses of 0.25 and 0.5 mM", "value": "all increases in cell number were blocked"},
      {"measurement": "percentage of the cell population in G1", "setting": "PC-3 cells [3]; 0.25 and 0.5 mM, 24 hours, control 55%", "value": "69-70%"},
      {"measurement": "percentage of PC-3 cells at G2/M phase", "setting": "PC-3 cells [3]; 48 hours", "value": "decreased"},
      {"measurement": "percentage of the cell population in G1", "setting": "PC-3 cells [3]; 48 hours, dose- and time-dependent", "value": "increased"},
      {"measurement": "percentage of cells at G2/M phase", "setting": "PC-3 cells [3]; increasing concentrations (0.25, 0.5 mM), 24 hours, control 28%", "value": "19% and 24%"},
      {"measurement": "relocalization of GFP-FKHR from the cytoplasm to the nucleus", "setting": "GFP-FKHR fusion protein", "value": "marked relocalization"},
      {"measurement": "prostate tumor weights", "setting": "[4]; 5 ppm selenium in drinking water and/or paclitaxel 10 mg/kg intraperitoneally once per week, 5 weeks, control received Cremophor/ethanol carrier", "value": "not reduced compared to the control"},
      {"measurement": "microvessel density in the tumors", "setting": "[4]; selenate alone, 5 ppm in drinking water", "value": "greater effect on reducing microvessel density in the tumors than on tumor volumes"},
      {"measurement": "activation of Akt (phosphorylated Akt relative to total Akt)", "setting": "Akt; 125 μM, 6 hours", "value": "inhibits activation of Akt"},
      {"measurement": "activation of Akt at high dose", "setting": "Akt; 500 μM, 1 hour", "value": "inhibited activation of Akt"},
      {"measurement": "tumor progression", "setting": "[5]", "value": "significantly reduces tumor progression"}
    ]}
  ]
}
